Data taken from patent publication US4661516A, “Diaminocyclohexane platinum complexes” (Research Corporation, priority 1984, dated 1987).

Columns and labels:
[1] = BUN (RUN [sic]) with the acute lethality data (Table XIII); assay type: in vivo; details: mean + 1 S.D.
[2] = test system: L1210 leukemia cells (L1210/PDD); assay: In vitro cytotoxicity / cross-resistance, L1210/PDD (L1210/DDP) cells resistant to cisdiamminedichloroplatinum(II); assay type: cell-based; details: L1210/DDP, Tables VII and VIII; 5760 min
Experimental: Four ml of cell suspension were added to culture tubes and the appropriate concentration (0.01, 0.1, 1 or 10 μg/ml final drug concentration) was added. After 96 hours the cell concentration of control and experimental cultures were calculated with the aid of a Coulter Counter® Model ZBf and the percent inhibition calculated.

[3] = Acute lethality, single intraperitoneal injection (Table XIII); assay type: in vivo
L1210/0 leukemia cells = assay: In vivo anti-tumor activity, L1210 (L1210/0), multiple i.p. doses; set-up: species or system BDF1 mice; details: for LTS: survivors/treated 50 days after treatment; for Long Term Survivors: days 1, 5 and 9, at maximal effective dose, alive 60 days after tumor inoculation; for Maximal Effective Dose: i.p. on days 1, 5 and 9
Method in brief: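 BDF1 mice given 10^6 L1210 cells i.p., then i.p. complex starting about 24 h later (day 1), as single dose or on days 1, 5 and 9; six mice per dose. Activity expressed as %T/C of survival time versus untreated controls; long-term survivors alive at 60 days.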

[4] = test system: Wild type L1210 leukemic cells; assay: In vitro cytotoxicity, wild type L1210 leukemic cells (L1210/0); assay type: cell-based; details: for ID50: L1210, 72 hours incubation; for ID50 L1210/0: L1210/0, protocol of Example 14, Tables VII and VIII, 4320 min
Method in brief: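 Cells at 10^5 cells/ml were exposed to drug at 0.01, 0.1, 1 or 10 μg/ml final. Cell counts were taken by Coulter counter after 72 h […]. Percent growth inhibition was calculated versus control cultures.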

L1210 cells = assay: In vivo anti-tumor activity, L1210, single i.p. injection; set-up: species or system BDF1 mice; details: for Maximal Effective Dose: single i.p. injection; for % T/C: single i.p.
Experimental: About 24 hours after inoculation of the cells, the mice were injected intraperitoneally with varying dosages of complexes of the present invention. […] Long term survival signifies that animals were alive 60 days after inoculation with L1210 cells.

B16 cells = assay: Melanotic melanoma test, i.p. inoculated B16 melanoma; assay type: in vivo, BDF1 mice; details: for Maximal Effective Dose: B16, i.p. days 1, 5 and 9; for % T/C / Long Term Survivors: B16, i.p. days 1, 5 and 9, at maximal effective dose; for Long Term Survivors: 60 days
Experimental: The animals used were BDF1 mice, all of the same sex, weighing a minimum of 18 g. and all within a 4 g. weight range. There were 6 animals per test group. […] The test compounds were administered intraperitoneally on days 1, 5 and 9 at various doses. The animals were weighed and survivors were recorded on a regular basis for 60 days. The median survival time and the ratio of survival time for treated (T)/control (C) animals were calculated. […] The criterion for efficacy is T/C×100≥125%.

[5] = 6.25 mg/kg i.p., days 1, 5, 9, 30 day observation period
[6] = 12.5 mg/kg i.p., days 1, 5, 9, 30 day observation period
[7] = 25 mg/kg i.p., days 1, 5, 9, 30 day observation period
[8] = Tables X and XI, i.p. on days 1, 5 and 9, at maximal effective dose
[9] = Table IX, at maximal effective dose

## NC1CCCCC1N.O.O.O=C([O-])CN(CC(=O)[O-])c1ccccc1.[Pt+2] [Compound 37, N--Phenyliminodiacetato(DACH)Pt(II).2H2 O]
[1]
  RUN: 18 ± 1 mg/100 ml
[2]
  ID50 L1210/DDP: 2.6 µg/mL
[3]
  LD10: 56 mg/kg
  LD50: 81 mg/kg
  LD90: 135 mg/kg
L1210/0 leukemia cells; [5]
  % T/C: 246%
L1210/0 leukemia cells; 6.25 mg/kg, days 1, 5, 9
  LTS: 3/6
L1210/0 leukemia cells; [6]
  % T/C: 298%
L1210/0 leukemia cells; 12.5 mg/kg, days 1, 5, 9
  LTS: 5/6
L1210/0 leukemia cells; [7]
  % T/C: 242%
L1210/0 leukemia cells; 25 mg/kg, days 1, 5, 9
  LTS: 1/6
L1210/0 leukemia cells; Tables X and XI
  Long Term Survivors: 4/6
  Maximal Effective Dose: 12.5 mg/kg
L1210/0 leukemia cells; [8]
  % T/C: 537%
[4]
  ID50: 1.0 µg/mL
  ID50 L1210/0: 2.3 µg/mL
L1210 cells; Table IX
  Maximal Effective Dose: 12.5 mg/kg
L1210 cells; [9]
  % T/C: 172%
L1210 cells; 12.5 mg/kg
  % T/C: 172%
L1210 cells; 25 mg/kg
  % T/C: 156%
L1210 cells; 50 mg/kg
  % T/C: 108%
B16 cells
  Maximal Effective Dose: 25 mg/kg
  % T/C: 215%
  Long Term Survivors: 0/6

## NC1CCCCC1N.O=C([O-])CN(CC(=O)[O-])Cc1ccccc1.[Pt+2] [Compound 38, N--Benzyliminodiacetato(DACH)Pt(II)]
[1]
  RUN: 27 ± 3 mg/100 ml
[2]
  ID50 L1210/DDP: 0.8 µg/mL
[3]
  LD10: 81 mg/kg
  LD50: 140 mg/kg
  LD90: 210 mg/kg
L1210/0 leukemia cells; [5]
  % T/C: 277%
L1210/0 leukemia cells; [6]
  % T/C: 287%
L1210/0 leukemia cells; 12.5 mg/kg, days 1, 5, 9
  LTS: 1/6
L1210/0 leukemia cells; [7]
  % T/C: 240%
L1210/0 leukemia cells; 25 mg/kg, days 1, 5, 9
  LTS: 2/6
L1210/0 leukemia cells; Tables X and XI
  Long Term Survivors: 2/6
  Maximal Effective Dose: 12.5 mg/kg
L1210/0 leukemia cells; [8]
  % T/C: 397%
[4]
  ID50: 2.3 µg/mL
  ID50 L1210/0: 1.0 µg/mL
L1210 cells; Table IX
  Maximal Effective Dose: 25 mg/kg
L1210 cells; [9]
  % T/C: 170%
L1210 cells; 12.5 mg/kg
  % T/C: 123%
L1210 cells; 25 mg/kg
  % T/C: 170%
L1210 cells; 50 mg/kg
  % T/C: 158%
B16 cells
  Maximal Effective Dose: 12.5 mg/kg
  % T/C: 207%
  Long Term Survivors: 1/6

## NC1CCCCC1N.O.O.O=C([O-])CN(CCO)CC(=O)[O-].[Pt+2] [Compound 39, N--(2-Hydroxyethyl)-iminodiacetato(DACH)Pt(II).2H2 O]
[1]
  RUN: 18 ± 2 mg/100 ml
[2]
  ID50 L1210/DDP: 0.9 µg/mL
[3]
  LD10: 63 mg/kg
  LD50: 150 mg/kg
  LD90: 301 mg/kg
L1210/0 leukemia cells; Tables X and XI
  Long Term Survivors: 4/6
  Maximal Effective Dose: 25 mg/kg
L1210/0 leukemia cells; [8]
  % T/C: 450%
[4]
  ID50: 3.0 µg/mL
  ID50 L1210/0: 0.7 µg/mL
L1210 cells; Table IX
  Maximal Effective Dose: 25 mg/kg
L1210 cells; [9]
  % T/C: 180%
B16 cells
  Maximal Effective Dose: 25 mg/kg
  % T/C: 196%
  Long Term Survivors: 2/6
